Source: ChEMBL document CHEMBL4330114 (Bioorg Med Chem, 2019)
Values after ≈ are worked out from the molar mass of the structure shown.

Experiments:
[1] = Selectivity index, ratio of CC50 for mock-infected human MT4 cells to EC50 for HIV2 ROD infected in human MT4 cells; type: toxicity, cell-based; conditions: read-out: Selectivity Index
[2] = tested on: Human immunodeficiency virus 1; assay: Antiviral activity against HIV1 RES056 containing reverse transcriptase K103N + Y181C mutant infected in human MT4 cells assessed as inhibition of virus-induced cytopathic effect after 5 days by MTT assay; type: functional, organism-based; conditions: Human immunodeficiency virus 1, RES056, MT4, 120 h
[3] = tested on: Human immunodeficiency virus 1; assay: Antiviral activity against wild type HIV1 3B infected in human MT4 cells assessed as inhibition of virus-induced cytopathic effect after 5 days by MTT assay; type: functional, organism-based; conditions: Human immunodeficiency virus 1, 3B, MT4, 120 h
[4] = target: Human immunodeficiency virus type 1 reverse transcriptase (Human immunodeficiency virus 1, UniProt Q72547); assay: Inhibition of recombinant wild type HIV1 reverse transcriptase assessed as reduction in biotin-dUTP incorporation using poly(A)/oligo(dT)15 as template/primer after 1 hr by ELISA
[5] = Selectivity index, ratio of CC50 for mock-infected human MT4 cells to EC50 for wild type HIV1 3B infected in human MT4 cells; type: toxicity, cell-based; conditions: read-out: Selectivity Index
[6] = tested on: Human immunodeficiency virus 2; assay: Antiviral activity against HIV2 ROD infected in human MT4 cells assessed as inhibition of virus-induced cytopathic effect after 5 days by MTT assay; conditions: Human immunodeficiency virus 2, ISOLATE ROD, MT4, 120 h
[7] = Selectivity index, ratio of CC50 for mock-infected human MT4 cells to EC50 for HIV1 RES056 RES056 containing reverse transcriptase K103N + Y181C mutant infected in human MT4 cells; type: toxicity, cell-based; conditions: read-out: Selectivity Index
[8] = Cytotoxicity against mock-infected human MT4 cells assessed as reduction in cell viability after 5 days by MTT assay; type: cell-based
[9] = tested on: Human immunodeficiency virus 1; assay: Potency index, ratio of lamivudine EC50 to compound EC50 for antiviral activity against wild type HIV1 3B infected in human MT4 cells; type: functional
[10] = Aqueous solubility of the compound in water at pH 7.0 after overnight incubation by HPLC-UV analysis; type: physicochemical
[11] = Half life of the compound in phosphate buffer of pH 2.0 by HPLC-UV analysis; type: physicochemical
[12] = Half life of the compound in phosphate buffer of pH 7.4 by HPLC-UV analysis; type: physicochemical
[13] = Aqueous solubility of the compound at phosphate buffer of pH 2.0 after overnight incubation by HPLC-UV analysis; type: physicochemical
[14] = Aqueous solubility of the compound in phosphate buffer of pH 7.4 after overnight incubation by HPLC-UV analysis; type: physicochemical
[15] = Solubility of the compound; type: physicochemical

solubility [15] [µg/mL] | Structure (SMILES) | selectivity ratio [1] | EC50 [2] [µM] | EC50 [3] [µM] | IC50 [4] [µM] | selectivity ratio [5] | EC50 [6] [µM] | selectivity ratio [7] | CC50 at 120 h [8] [µM] | Ratio EC50 [9] | solubility [10] [µg/mL] | half-life [11] [h] | half-life [12] [h] | solubility [13] [µg/mL] | solubility [14] [µg/mL]
 | N#Cc1cc(Cl)cc(Oc2c(C(F)(F)F)ccn(CC(=O)Nc3ccc(C(F)(F)F)cc3)c2=O)c1 | < 1 | > 82.3 | 12.3 | 30.1 | 7 | > 82.3 | < 1 | 82.3 |  |  |  |  |  | 
 | N#Cc1cc(Cl)cc(Oc2c(C(F)(F)F)ccn(CC(=O)Nc3ncn[nH]3)c2=O)c1 | > 2 | 0.196 | 0.0548 | 0.522 | > 5200 | 182 | > 1450 | > 285 | 234 |  |  |  |  | 
 | N#Cc1cc(Cl)cc(Oc2c(C(F)(F)F)ccn(CC(=O)Nc3ccc(F)cc3)c2=O)c1 | 1 | > 269 | 188 | 72 | > 1 | > 269 | 1 | > 269 |  |  |  |  |  | 
 | Cn1c(Cn2ccc(C(F)(F)F)c(Oc3cc(Cl)cc(C#N)c3)c2=O)nn(COP(=O)(O)O)c1=O | 1 | > 234 | 0.262 | 0.93 | > 893 | > 234 | 1 | > 234 |  | 4560 (≈ 8510 µM) | > 24 | > 24 | 4220 (≈ 7870 µM) | 5190 (≈ 9680 µM)
 | N#Cc1cc(Cl)cc(Oc2c(C(F)(F)F)ccn(CC(=O)Nc3cn[nH]c3)c2=O)c1 | ≤ 1 | 0.343 | 0.0595 | 1.25 | 775 | ≥ 33.4 | 134 | 46.1 |  |  |  |  |  | 
 | N#Cc1cc(Cl)cc(Oc2c(C(F)(F)F)ccn(CC(=O)Nc3ccn[nH]3)c2=O)c1 | 1 | > 41.9 | 6.34 | 19.4 | ≥ 7 | 134 | 1 | ≥ 41.9 |  |  |  |  |  | 
 | CS(=O)(=O)c1ccc(NC(=O)Cn2ccc(C(F)(F)F)c(Oc3cc(Cl)cc(C#N)c3)c2=O)cc1 | < 1 | > 112 | 42.1 | 1 | 3 | > 112 | < 1 | 112 |  |  |  |  |  | 
 | N#Cc1cc(Cl)cc(Oc2c(C(F)(F)F)ccn(CC(=O)Nc3ccc([N+](=O)[O-])cc3)c2=O)c1 | > 2 | > 254 | 1.4 | 1.27 | > 181 | 145 | 1 | > 254 |  |  |  |  |  | 
 | N#Cc1cc(Cl)cc(Oc2c(C(F)(F)F)ccn(CC(=O)Nc3cccnc3)c2=O)c1 | < 1 | > 111 | > 111 | 133 | < 1 | > 111 | < 1 | 111 |  |  |  |  |  | 
 | N#Cc1cc(Cl)cc(Oc2c(C(F)(F)F)ccn(CC(=O)Nc3ccc(Br)cc3)c2=O)c1 | < 1 | > 87.9 | > 87.9 | 92.5 | < 1 | > 87.9 | < 1 | 87.9 |  |  |  |  |  | 
 | CC(C)OC(=O)OCn1nc(Cn2ccc(C(F)(F)F)c(Oc3cc(Cl)cc(C#N)c3)c2=O)n(C)c1=O | > 2 | > 231 | 1.22 | 2.11 | > 189 | 152 | 1 | > 231 |  | 27 (≈ 49.8 µM) |  |  | 14 (≈ 25.8 µM) | 29 (≈ 53.5 µM)
 | N#Cc1cc(Cl)cc(Oc2c(C(F)(F)F)ccn(CC(=O)Nc3ccncc3)c2=O)c1 | < 1 | > 133 | 32.4 | 32.5 | 4 | > 133 | < 1 | 133 |  |  |  |  |  | 
 | N#Cc1cc(Cl)cc(Oc2c(C(F)(F)F)ccn(CC(=O)Nc3cnccn3)c2=O)c1 | 1 | > 183 | 29.4 | 63.4 | ≥ 6 | > 183 | 1 | ≥ 183 |  |  |  |  |  | 
 | Cn1c(Cn2ccc(C(F)(F)F)c(Oc3cc(Cl)cc(C#N)c3)c2=O)n[nH]c1=O [DORAVIRINE] |  | 0.015 | 0.013 | 0.019 |  | 142 |  | > 294 |  |  |  |  |  | 
 | O=C1Nc2ccc(Cl)cc2[C@@](C#CC2CC2)(C(F)(F)F)O1 [EFAVIRENZ] |  | 0.244 | 0.007 |  |  |  |  | > 3.16 |  |  |  |  |  | 
< 1 | Cc1cc(C#N)cc(C)c1Oc1nc(Nc2ccc(C#N)cc2)nc(N)c1Br [ETRAVIRINE] |  |  |  |  |  |  |  |  |  |  |  |  |  | 
 | Nc1ccn([C@@H]2CS[C@H](CO)O2)c(=O)n1 [LAMIVUDINE] |  | 7.77 | 12.8 |  | > 7 | ≥ 17.1 | > 11 | > 87.3 |  |  |  |  |  | 
